Measurements reported in patent US20260166150A1, “CRYSTAL FORM OF NK3R ANTAGONIST, AND PREPARATION METHOD THEREFOR AND USE THEREOF” (CHANGCHUN GENESCIENCE PHARMACEUTICAL CO., LTD., priority 2022, published 2026).

Columns and labels:
human NK-3 receptor = biological target: T1, human NK-3 receptor (Homo sapiens, UniProt P29371); assay: Antagonistic activity on human NK-3 receptor, FLIPR calcium assay in stably transfected human NK-3R/HEK293 cells; format: cell-based
T1 construct: expressed in transfected cells; host or cells: HEK293 (stably transfected human NK-3R/HEK293)
T1 sequence (P29371 1-465): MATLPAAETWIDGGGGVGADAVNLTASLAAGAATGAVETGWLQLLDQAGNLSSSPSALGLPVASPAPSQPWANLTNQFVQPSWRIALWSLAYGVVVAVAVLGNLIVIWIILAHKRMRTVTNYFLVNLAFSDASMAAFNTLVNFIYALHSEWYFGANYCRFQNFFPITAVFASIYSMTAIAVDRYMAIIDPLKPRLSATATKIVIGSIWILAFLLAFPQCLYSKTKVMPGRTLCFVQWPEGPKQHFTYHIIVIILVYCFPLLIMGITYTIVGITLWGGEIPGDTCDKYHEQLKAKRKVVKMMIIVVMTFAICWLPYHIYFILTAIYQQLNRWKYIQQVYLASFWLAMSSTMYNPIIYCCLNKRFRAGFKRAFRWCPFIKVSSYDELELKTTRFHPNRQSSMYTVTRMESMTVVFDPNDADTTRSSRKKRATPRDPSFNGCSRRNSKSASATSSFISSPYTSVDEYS

[1] = DVS hygroscopicity test at 25° C.; format: physicochemical
Procedure: • DVS curve is collected on DVS Intrinsic of SMS (Surface Measurement Systems) Relative humidity at 25° C. is calibrated based on deliquescent points of LiCl, Mg(NO3)2, and KCl. • Temperature: 25° C.; • Sample amount: 10-20 mg; • Protecting gas and flow rate: N2, 200 mL/min; • dm/dt: 0.002%/min; • Minimum dm/dt equilibration time: 10 min; • Maximum equilibration time: 180 min; • RH range: 0% RH-95% RH-0% RH; • RH gradient: 10% RH (0% RH-90% RH & 90% RH-0% RH); 5% RH (90% RH-95% RH & 95% RH-90% RH)

[2] = Solid-state stability evaluation (open storage, XRPD and HPLC); format: physicochemical
Procedure: Waters H-Class ultra performance liquid chromatograph is used to collect solubility and purity data of the items.
An appropriate amount of sample was weighed, kept open at 60° C. for 1 day, as well as kept open at 25° C./60% RH and kept open at 40° C./75% RH for 1 week and 4 weeks respectively. Then, the sample was characterized by XRPD and HPLC to detect changes in the crystal form and chemical purity.

| NK-3 receptor antagonism (in words) (human NK-3 receptor; conclusion from IC50 data) | IC50 (human NK-3 receptor; human NK-3R/HEK293 cells, agonist Neurokinin B, FLIPR) | moisture adsorption ([1]; 25° C./80% RH, DVS) | hygroscopicity (in words) ([1]; DVS, 25° C.) | crystal form before and after DVS testing (XRPD) ([1]; XRPD before and after DVS) | HPLC Relative purity % ([2]; 25° C./60% RH, 1 week, open) | HPLC purity Area % ([2]; 25° C./60% RH, 1 week, open) | HPLC Relative purity % ([2]; 25° C./60% RH, 4 weeks, open) | HPLC purity Area % ([2]; 25° C./60% RH, 4 weeks, open) | HPLC Relative purity % ([2]; 40° C./75% RH, 1 week, open) | HPLC purity Area % ([2]; 40° C./75% RH, 1 week, open) | HPLC Relative purity % ([2]; 40° C./75% RH, 4 weeks, open) | HPLC purity Area % ([2]; 40° C./75% RH, 4 weeks, open) | change of purity after storage ([2]; 60° C. 1 day, 25° C./60% RH and 40° C./75% RH, 1 week and 4 weeks, open) | HPLC Relative purity % ([2]; 60° C., 1 day, open) | HPLC purity Area % ([2]; 60° C., 1 day, open) | physicochemical stability (in words) ([2]; all evaluated storage conditions) | SMILES |
| --- | --- | --- | --- | --- | --- | --- | --- | --- | --- | --- | --- | --- | --- | --- | --- | --- | --- |
| potent NK-3 receptor antagonist | 12.1 nM |  |  |  |  |  |  |  |  |  |  |  |  |  |  |  | Cc1nsc(-c2nc(N3CCCC3=O)c3n2CCN(C(=O)c2ccc(F)cc2)[C@@H]3C)n1 [Compound represented by formula (I), (R)-1-(7-(4-fluorobenzoyl)-8-methyl-3-(3-methyl-1,2,4-thiadiazol-5-yl)-5,6,7,8-tetrahydroimidazo[1,5-a]pyrazin-1-yl)pyrrolidin-2-one] |
|  |  | about 0.15% | almost non-hygroscopic | did not change in the crystal form | 99.9% | 99.48% | 99.9% | 99.45% | 99.9% | 99.49% | 99.9% | 99.49% | < 0.2 %, area % | 99.9% | 99.49% | good physicochemical stability | Cc1nsc(-c2nc(N3CCCC3=O)c3n2CCN(C(=O)c2ccc(F)cc2)[C@@H]3C)n1 [Crystal form A of free base, (R)-1-(7-(4-fluorobenzoyl)-8-methyl-3-(3-methyl-1,2,4-thiadiazol-5-yl)-5,6,7,8-tetrahydroimidazo[1,5-a]pyrazin-1-yl)pyrrolidin-2-one] |
